Species on record: Rattus norvegicus
Experiment: DrugMatrix - Regimen: Daily Repeat
Type: toxicity, organism-based, Sprague-Dawley
Design: regimen Daily Repeat, gender Male, age 6-8 weeks
Details: in vivo, po, route oral GAVAGE, vehicle 100 % WATER; for BASOPHIL / EOSINOPHIL / ERYTHROCYTE COUNT / HEMATOCRIT / LEUKOCYTE COUNT / MEAN CORPUSCULAR HEMOGLOBIN / MEAN CORPUSCULAR HEMOGLOBIN CONCENTRATION / MONOCYTE / NEUTROPHIL / PLATELET COUNT / LYMPHOCYTE / MEAN CORPUSCULAR VOLUME / HEMOGLOBIN / ABSOLUTE BASOPHIL / ABSOLUTE EOSINOPHIL / ABSOLUTE LYMPHOCYTE / ABSOLUTE MONOCYTE / ABSOLUTE SEGMENTED NEUTROPHIL / NUCLEATED RED BLOOD CELLS: tissue Blood; for ALANINE AMINOTRANSFERASE / ALKALINE PHOSPHATASE / ASPARTATE AMINOTRANSFERASE / BLOOD UREA NITROGEN / CHOLESTEROL / CREATINE PHOSPHOKINASE / CREATININE / GLUCOSE / PHOSPHORUS / TOTAL BILIRUBIN / TOTAL PROTEIN / POTASSIUM / ALBUMIN / SODIUM / CARBON DIOXIDE / CHLORIDE / LACTATE DEHYDROGENASE / LIPASE / URIC ACID: tissue Plasma
[1] = 0 mg/kg, 72 h, dose level Control, time 3 day
[2] = 0 mg/kg, 120 h, dose level Control, time 5 day
[3] = 24 mg/kg, 72 h, dose level Low, time 3 day
[4] = 24 mg/kg, 120 h, dose level Low, time 5 day
[5] = 41 mg/kg, 72 h, dose level Low, time 3 day
[6] = 41 mg/kg, 120 h, dose level Low, time 5 day

## COLISTIN
[1]
  BASOPHIL: 0%
  EOSINOPHIL: 0.5%
  ERYTHROCYTE COUNT: 5.8 x10E6/uL
  HEMATOCRIT: 35.07%
  LEUKOCYTE COUNT: 13.7 x10E3/uL
  MEAN CORPUSCULAR HEMOGLOBIN: 24.38 pg
  MEAN CORPUSCULAR HEMOGLOBIN CONCENTRATION: 40.28 G/DL
  MONOCYTE: 2.67%
  NEUTROPHIL: 14.5%
  PLATELET COUNT: 911.5 x10E3/uL
  ALANINE AMINOTRANSFERASE: 36.83 u/L
  ALKALINE PHOSPHATASE: 399.83 u/L
  ASPARTATE AMINOTRANSFERASE: 66 u/L
  BLOOD UREA NITROGEN: 14.67 mg/dL
  CHOLESTEROL: 66.33 mg/dL
  CREATINE PHOSPHOKINASE: 139.5 u/L
  CREATININE: 0.92 mg/dL
  GLUCOSE: 175 mg/dL
  PHOSPHORUS: 11.42 mg/dL
  TOTAL BILIRUBIN: 1.13 mg/dL
  TOTAL PROTEIN: 6.87 G/DL
[2]
  BASOPHIL: 0%
  EOSINOPHIL: 0.2%
  ERYTHROCYTE COUNT: 6.02 x10E6/uL
  LEUKOCYTE COUNT: 12.34 x10E3/uL
  LYMPHOCYTE: 83%
  MEAN CORPUSCULAR HEMOGLOBIN: 23.92 pg
  MEAN CORPUSCULAR VOLUME: 60.66 fL
  MONOCYTE: 3%
  NEUTROPHIL: 13.8%
  PLATELET COUNT: 1190.6 x10E3/uL
  ALANINE AMINOTRANSFERASE: 43 u/L
  ALKALINE PHOSPHATASE: 393 u/L
  ASPARTATE AMINOTRANSFERASE: 62.33 u/L
  CHOLESTEROL: 65.5 mg/dL
  CREATINE PHOSPHOKINASE: 130.67 u/L
  CREATININE: 0.58 mg/dL
  GLUCOSE: 180.67 mg/dL
  PHOSPHORUS: 11.28 mg/dL
  POTASSIUM: 7.05 MEQ/L
  TOTAL BILIRUBIN: 0.72 mg/dL
  TOTAL PROTEIN: 6.83 G/DL
[3]
  BASOPHIL: 0%
  EOSINOPHIL: 0%
  ERYTHROCYTE COUNT: 5.85 x10E6/uL
  LEUKOCYTE COUNT: 13.3 x10E3/uL
  LYMPHOCYTE: 81.67%
  MEAN CORPUSCULAR HEMOGLOBIN: 24.6 pg
  MEAN CORPUSCULAR HEMOGLOBIN CONCENTRATION: 40.7 G/DL
  MEAN CORPUSCULAR VOLUME: 60.33 fL
  MONOCYTE: 2.67%
  NEUTROPHIL: 15.67%
  PLATELET COUNT: 839 x10E3/uL
  ALANINE AMINOTRANSFERASE: 41.67 u/L
  ALBUMIN: 3.7 G/DL
  ALKALINE PHOSPHATASE: 316 u/L
  ASPARTATE AMINOTRANSFERASE: 67 u/L
  BLOOD UREA NITROGEN: 14.33 mg/dL
  CREATININE: 0.77 mg/dL
  GLUCOSE: 176.33 mg/dL
  PHOSPHORUS: 11.3 mg/dL
  POTASSIUM: 6.83 MEQ/L
  SODIUM: 150 MEQ/L
  TOTAL BILIRUBIN: 0.87 mg/dL
  TOTAL PROTEIN: 6.77 G/DL
[4]
  BASOPHIL: 0%
  EOSINOPHIL: 0.33%
  ERYTHROCYTE COUNT: 6.34 x10E6/uL
  HEMATOCRIT: 37.4%
  HEMOGLOBIN: 14.6 G/DL
  LEUKOCYTE COUNT: 11.93 x10E3/uL
  LYMPHOCYTE: 83%
  MEAN CORPUSCULAR HEMOGLOBIN: 23 pg
  MEAN CORPUSCULAR HEMOGLOBIN CONCENTRATION: 39.03 G/DL
  MEAN CORPUSCULAR VOLUME: 58.97 fL
  NEUTROPHIL: 14.33%
  PLATELET COUNT: 1027.67 x10E3/uL
  ALANINE AMINOTRANSFERASE: 42.67 u/L
  ALKALINE PHOSPHATASE: 411.33 u/L
  ASPARTATE AMINOTRANSFERASE: 68.33 u/L
  BLOOD UREA NITROGEN: 15.67 mg/dL
  CHOLESTEROL: 64.33 mg/dL
  CREATINE PHOSPHOKINASE: 121.67 u/L
  CREATININE: 0.63 mg/dL
  PHOSPHORUS: 10.87 mg/dL
  POTASSIUM: 6.6 MEQ/L
  SODIUM: 149.67 MEQ/L
  TOTAL BILIRUBIN: 0.73 mg/dL
  TOTAL PROTEIN: 6.7 G/DL

## CC(O)(P(=O)(O)O)P(=O)(O)O [ETIDRONIC ACID]
[5]
  ABSOLUTE BASOPHIL: 0 CELLS/uL
  ABSOLUTE EOSINOPHIL: 0 CELLS/uL
  ABSOLUTE LYMPHOCYTE: 15847 CELLS/uL
  ABSOLUTE MONOCYTE: 485 CELLS/uL
  ABSOLUTE SEGMENTED NEUTROPHIL: 1868 CELLS/uL
  BASOPHIL: 0%
  EOSINOPHIL: 0%
  ERYTHROCYTE COUNT: 5.74 x10E6/uL
  HEMATOCRIT: 35.63%
  HEMOGLOBIN: 13.33 G/DL
  LEUKOCYTE COUNT: 18.2 x10E3/uL
  LYMPHOCYTE: 86.67%
  MEAN CORPUSCULAR HEMOGLOBIN: 23.27 pg
  MEAN CORPUSCULAR HEMOGLOBIN CONCENTRATION: 37.43 G/DL
  MEAN CORPUSCULAR VOLUME: 62.13 fL
  MONOCYTE: 2.67%
  NEUTROPHIL: 10.67%
  NUCLEATED RED BLOOD CELLS: 0 /100WBC
  PLATELET COUNT: 1274.67 x10E3/uL
  ALANINE AMINOTRANSFERASE: 42.33 u/L
  ALBUMIN: 4.67 G/DL
  ALKALINE PHOSPHATASE: 379 u/L
  ASPARTATE AMINOTRANSFERASE: 79 u/L
  BLOOD UREA NITROGEN: 20.67 mg/dL
  CARBON DIOXIDE: 24 mmol/L
  CHLORIDE: 100 MEQ/L
  CHOLESTEROL: 62.33 mg/dL
  CREATINE PHOSPHOKINASE: 167.33 u/L
  CREATININE: 0.19 mg/dL
  GLUCOSE: 153 mg/dL
  LACTATE DEHYDROGENASE: 126 u/L
  LIPASE: 9.33 u/L
  PHOSPHORUS: 12.13 mg/dL
  POTASSIUM: 7.21 MEQ/L
  SODIUM: 143.1 MEQ/L
  TOTAL BILIRUBIN: 0.2 mg/dL
  TOTAL PROTEIN: 5.6 G/DL
  URIC ACID: 1.7 mg/dL
[6]
  ABSOLUTE BASOPHIL: 0 CELLS/uL
  ABSOLUTE EOSINOPHIL: 0 CELLS/uL
  ABSOLUTE LYMPHOCYTE: 11460.33 CELLS/uL
  ABSOLUTE MONOCYTE: 399 CELLS/uL
  ABSOLUTE SEGMENTED NEUTROPHIL: 1374 CELLS/uL
  BASOPHIL: 0%
  EOSINOPHIL: 0%
  ERYTHROCYTE COUNT: 5.69 x10E6/uL
  HEMATOCRIT: 35%
  HEMOGLOBIN: 13.13 G/DL
  LEUKOCYTE COUNT: 13.23 x10E3/uL
  LYMPHOCYTE: 86.67%
  MEAN CORPUSCULAR HEMOGLOBIN: 23.1 pg
  MEAN CORPUSCULAR HEMOGLOBIN CONCENTRATION: 37.57 G/DL
  MEAN CORPUSCULAR VOLUME: 61.53 fL
  MONOCYTE: 3%
  NEUTROPHIL: 10.33%
  NUCLEATED RED BLOOD CELLS: 0 /100WBC
  PLATELET COUNT: 1338.67 x10E3/uL
  ALANINE AMINOTRANSFERASE: 43 u/L
  ALBUMIN: 4.23 G/DL
  ALKALINE PHOSPHATASE: 323.33 u/L
  ASPARTATE AMINOTRANSFERASE: 88.33 u/L
  BLOOD UREA NITROGEN: 18.67 mg/dL
  CARBON DIOXIDE: 23 mmol/L
  CHLORIDE: 108.5 MEQ/L
  CHOLESTEROL: 50 mg/dL
  CREATINE PHOSPHOKINASE: 367.67 u/L
  CREATININE: 0.18 mg/dL
  GLUCOSE: 149.33 mg/dL
  LACTATE DEHYDROGENASE: 265.67 u/L
  LIPASE: 8.5 u/L
  PHOSPHORUS: 10.7 mg/dL
  POTASSIUM: 5.74 MEQ/L
  SODIUM: 146.55 MEQ/L
  TOTAL BILIRUBIN: 0.2 mg/dL
  TOTAL PROTEIN: 5.8 G/DL
  URIC ACID: 1.53 mg/dL
